We go through three compounds from ChEMBL document CHEMBL5113415, “Synthesis of 10,10'-bis(trifluoromethyl) marinopyrrole A derivatives and evaluation of their antiviral activities in vitro” (Eur J Med Chem, 2022).

Test system in one series: not listed separately
Description: Selectivity index, ratio of CC50 for […] to IC50 for JEV-SA14 infected in […]. The series is classed as toxicity, cell-based. Conditions: read-out: Ratio CC50/IC50.
For the compound `O=C(c1ccc(C(F)(F)F)cc1O)c1[nH]c(Cl)c(Cl)c1-n1c(C(=O)c2ccc(C(F)(F)F)cc2O)cc(Cl)c1Sc1ncc[nH]1`, the selectivity ratio stood at 2.98.
In the case of `O=C(c1ccc(C(F)(F)F)cc1O)c1[nH]c(Cl)c(Cl)c1-n1c(C(=O)c2ccc(C(F)(F)F)cc2O)cc(Cl)c1Sc1nc[nH]n1`, the selectivity ratio was determined as 0.64.
`O=C(c1ccc(C(F)(F)F)cc1O)c1[nH]c(Cl)c(Cl)c1-n1c(C(=O)c2ccc(C(F)(F)F)cc2O)cc(Cl)c1Sc1cnccn1`: the selectivity ratio stood at 2.02.

Test system in another series: not listed separately
Kind of series: Cytotoxicity against […] infected with DENV-NGC-1 incubated for 7 days by CellTiter 96 luminescent cell viability assay. The format is toxicity, cell-based. The note with it: time 7 day.
Broadly, the CC50 is the concentration that lowers cell viability or growth by half. The low end stands for greater toxicity to the cells, the high end for lower toxicity to the cells. Regarding `O=C(c1ccc(C(F)(F)F)cc1O)c1[nH]c(Cl)c(Cl)c1-n1c(C(=O)c2ccc(C(F)(F)F)cc2O)cc(Cl)c1Sc1ncc[nH]1`, the CC50 at 168 h came to 3750 nM.
As to `O=C(c1ccc(C(F)(F)F)cc1O)c1[nH]c(Cl)c(Cl)c1-n1c(C(=O)c2ccc(C(F)(F)F)cc2O)cc(Cl)c1Sc1cnccn1`, the CC50 at 168 h was found to be 1460 nM.

Test system in a further series: not listed separately
Kind of series: Cytotoxicity against […] infected with ZIKV-SMGC-1 incubated for 7 days by CellTiter 96 luminescent cell viability assay. The series is classed as toxicity, cell-based. Conditions: time 7 day.
The compound `O=C(c1ccc(C(F)(F)F)cc1O)c1[nH]c(Cl)c(Cl)c1-n1c(C(=O)c2ccc(C(F)(F)F)cc2O)cc(Cl)c1Sc1ncc[nH]1` had a CC50 at 168 h of 3.75 µM.
`O=C(c1ccc(C(F)(F)F)cc1O)c1[nH]c(Cl)c(Cl)c1-n1c(C(=O)c2ccc(C(F)(F)F)cc2O)cc(Cl)c1Sc1nc[nH]n1` had a CC50 at 168 h of 13.8 µM.
`O=C(c1ccc(C(F)(F)F)cc1O)c1[nH]c(Cl)c(Cl)c1-n1c(C(=O)c2ccc(C(F)(F)F)cc2O)cc(Cl)c1Sc1cnccn1` registered a 50% cytotoxic concentration (CC50) at 168 h of 1.46 µM.

Test system in the next series: not listed separately
Kind of series: Selectivity index, ratio of CC50 for […] to IC50 for ZIKV-SMGC-1 infected in […]. The series is classed as toxicity, cell-based. The note with it: read-out: Ratio CC50/IC50.
For the compound `O=C(c1ccc(C(F)(F)F)cc1O)c1[nH]c(Cl)c(Cl)c1-n1c(C(=O)c2ccc(C(F)(F)F)cc2O)cc(Cl)c1Sc1ncc[nH]1`, the selectivity ratio stood at 3.87.
On the same count and under the same terms, for `O=C(c1ccc(C(F)(F)F)cc1O)c1[nH]c(Cl)c(Cl)c1-n1c(C(=O)c2ccc(C(F)(F)F)cc2O)cc(Cl)c1Sc1nc[nH]n1` the value was 2.44; for `O=C(c1ccc(C(F)(F)F)cc1O)c1[nH]c(Cl)c(Cl)c1-n1c(C(=O)c2ccc(C(F)(F)F)cc2O)cc(Cl)c1Sc1cnccn1`, 5.85.

Test system in the next series: not listed separately
Kind of series: Cytotoxicity against […] infected with JEV-SA14 incubated for 7 days by CellTiter 96 luminescent cell viability assay. The format is toxicity, cell-based. Conditions: time 7 day.
Consider `O=C(c1ccc(C(F)(F)F)cc1O)c1[nH]c(Cl)c(Cl)c1-n1c(C(=O)c2ccc(C(F)(F)F)cc2O)cc(Cl)c1Sc1ncc[nH]1`, for which the midpoint of cytotoxicity, the CC50 at 168 h, lay at 3.75 µM. This lies in the single-digit micromolar range.
On the same count and under the same terms, the figure for `O=C(c1ccc(C(F)(F)F)cc1O)c1[nH]c(Cl)c(Cl)c1-n1c(C(=O)c2ccc(C(F)(F)F)cc2O)cc(Cl)c1Sc1nc[nH]n1` is 18.7 µM; for `O=C(c1ccc(C(F)(F)F)cc1O)c1[nH]c(Cl)c(Cl)c1-n1c(C(=O)c2ccc(C(F)(F)F)cc2O)cc(Cl)c1Sc1cnccn1` it is 1.21 µM.

Test system in another series: not listed separately
Description: Selectivity index, ratio of CC50 for […] to IC50 for YFV-17D infected in […]. The series is classed as toxicity, cell-based. Conditions: read-out: Ratio CC50/IC50.
For the compound `O=C(c1ccc(C(F)(F)F)cc1O)c1[nH]c(Cl)c(Cl)c1-n1c(C(=O)c2ccc(C(F)(F)F)cc2O)cc(Cl)c1Sc1ncc[nH]1`, the selectivity ratio was 2.93.
For the compound `O=C(c1ccc(C(F)(F)F)cc1O)c1[nH]c(Cl)c(Cl)c1-n1c(C(=O)c2ccc(C(F)(F)F)cc2O)cc(Cl)c1Sc1nc[nH]n1`, the selectivity ratio is 0.77.
Take `O=C(c1ccc(C(F)(F)F)cc1O)c1[nH]c(Cl)c(Cl)c1-n1c(C(=O)c2ccc(C(F)(F)F)cc2O)cc(Cl)c1Sc1cnccn1`: the selectivity ratio came out at 1.45.

Test system in the next series: not listed separately
Description: Selectivity index, ratio of CC50 for […] to IC50 for DENV-NGC infected in […]. The format is toxicity, cell-based. Conditions: read-out: Ratio CC50/IC50.
For the compound `O=C(c1ccc(C(F)(F)F)cc1O)c1[nH]c(Cl)c(Cl)c1-n1c(C(=O)c2ccc(C(F)(F)F)cc2O)cc(Cl)c1Sc1ncc[nH]1`, the selectivity ratio stood at 3.26.
As to `O=C(c1ccc(C(F)(F)F)cc1O)c1[nH]c(Cl)c(Cl)c1-n1c(C(=O)c2ccc(C(F)(F)F)cc2O)cc(Cl)c1Sc1cnccn1`, the selectivity ratio turned out to be 5.03.

The test system of another series is Zika virus. Description: Antiviral activity against ZIKV-SMGC-1 infected in […] incubated for 7 days by CellTiter 96 luminescent cell viability assay. The note with it: SMGC-1, BHK, 168 h. The format is functional, organism-based.
Usually IC50 stands for the concentration that inhibits the measured activity by half. Read a high IC50 as a need for much substance. `O=C(c1ccc(C(F)(F)F)cc1O)c1[nH]c(Cl)c(Cl)c1-n1c(C(=O)c2ccc(C(F)(F)F)cc2O)cc(Cl)c1Sc1ncc[nH]1` gave an IC50 of 970 nM. This lies in the sub-micromolar range.
Take `O=C(c1ccc(C(F)(F)F)cc1O)c1[nH]c(Cl)c(Cl)c1-n1c(C(=O)c2ccc(C(F)(F)F)cc2O)cc(Cl)c1Sc1nc[nH]n1`: the IC50 was determined as 5670 nM.
The compound `O=C(c1ccc(C(F)(F)F)cc1O)c1[nH]c(Cl)c(Cl)c1-n1c(C(=O)c2ccc(C(F)(F)F)cc2O)cc(Cl)c1Sc1cnccn1` yielded an IC50 of 250 nM. This IC50 is about 23-fold lower than that of the compound before.

Test system in a further series: not listed separately
Description: Cytotoxicity against human RD cells infected with CA16 incubated for 3 days by CellTiter 96 luminescent cell viability assay. The format is toxicity, cell-based. Conditions: time 3 day.
As for `O=C(c1ccc(C(F)(F)F)cc1O)c1[nH]c(Cl)c(Cl)c1-n1c(C(=O)c2ccc(C(F)(F)F)cc2O)cc(Cl)c1Sc1cnccn1`, it took 11 µM to reach half-maximal cytotoxicity (CC50 at 72 h).

Another series relates to Japanese encephalitis virus. Kind of series: Antiviral activity against JEV-SA14 infected in […] incubated for 7 days by CellTiter 96 luminescent cell viability assay. The format is functional, organism-based. The note with it: 168 h.
Take `O=C(c1ccc(C(F)(F)F)cc1O)c1[nH]c(Cl)c(Cl)c1-n1c(C(=O)c2ccc(C(F)(F)F)cc2O)cc(Cl)c1Sc1ncc[nH]1`: the IC50 came to 1260 nM.
The same measure, in the same setting: for `O=C(c1ccc(C(F)(F)F)cc1O)c1[nH]c(Cl)c(Cl)c1-n1c(C(=O)c2ccc(C(F)(F)F)cc2O)cc(Cl)c1Sc1nc[nH]n1` the value was 29400 nM; for `O=C(c1ccc(C(F)(F)F)cc1O)c1[nH]c(Cl)c(Cl)c1-n1c(C(=O)c2ccc(C(F)(F)F)cc2O)cc(Cl)c1Sc1cnccn1`, 600 nM.

In another series the test system is Coxsackievirus A16. Kind of series: Antiviral activity against CA16 infected in human RD cells incubated for 3 days by CellTiter 96 luminescent cell viability assay. The series is classed as functional, organism-based. The note with it: Enterovirus A, 72 h.
For the compound `O=C(c1ccc(C(F)(F)F)cc1O)c1[nH]c(Cl)c(Cl)c1-n1c(C(=O)c2ccc(C(F)(F)F)cc2O)cc(Cl)c1Sc1cnccn1`, the IC50 came out at 180 nM.

Test system in another series: not listed separately
Kind of series: Cytotoxicity against […] infected with YFV-17D incubated for 7 days by CellTiter 96 luminescent cell viability assay. The format is toxicity, cell-based. Conditions: time 7 day.
`O=C(c1ccc(C(F)(F)F)cc1O)c1[nH]c(Cl)c(Cl)c1-n1c(C(=O)c2ccc(C(F)(F)F)cc2O)cc(Cl)c1Sc1ncc[nH]1` displayed a CC50 at 168 h of 3.75 µM.
Compound `O=C(c1ccc(C(F)(F)F)cc1O)c1[nH]c(Cl)c(Cl)c1-n1c(C(=O)c2ccc(C(F)(F)F)cc2O)cc(Cl)c1Sc1nc[nH]n1` gave a 50% cytotoxic concentration (CC50) at 168 h of 18.7 µM.
With `O=C(c1ccc(C(F)(F)F)cc1O)c1[nH]c(Cl)c(Cl)c1-n1c(C(=O)c2ccc(C(F)(F)F)cc2O)cc(Cl)c1Sc1cnccn1`, the CC50 at 168 h came out at 1.22 µM.

Another series relates to Dengue virus. Kind of series: Antiviral activity against DENV-NGC-1 infected in […] incubated for 7 days by CellTiter 96 luminescent cell viability assay. The format is functional, organism-based. Conditions: NGC-1, BHK, 168 h.
For the compound `O=C(c1ccc(C(F)(F)F)cc1O)c1[nH]c(Cl)c(Cl)c1-n1c(C(=O)c2ccc(C(F)(F)F)cc2O)cc(Cl)c1Sc1ncc[nH]1`, half-maximal inhibition (IC50) was put at 1150 nM.
As to `O=C(c1ccc(C(F)(F)F)cc1O)c1[nH]c(Cl)c(Cl)c1-n1c(C(=O)c2ccc(C(F)(F)F)cc2O)cc(Cl)c1Sc1cnccn1`, the half-maximal inhibitory concentration (IC50) was 290 nM.

Test system in a further series: not listed separately
Description: Selectivity index, ratio of CC50 for human RD cells to IC50 for CA16 infected in human RD cells. The series is classed as toxicity, cell-based. Conditions: read-out: Ratio CC50/IC50.
As for `O=C(c1ccc(C(F)(F)F)cc1O)c1[nH]c(Cl)c(Cl)c1-n1c(C(=O)c2ccc(C(F)(F)F)cc2O)cc(Cl)c1Sc1cnccn1`, the selectivity ratio was 60.9.

A further series concerns Yellow fever virus. Description: Antiviral activity against YFV-17D infected in […] incubated for 7 days by CellTiter 96 luminescent cell viability assay. The series is classed as functional, organism-based. The note with it: 168 h.
Consider `O=C(c1ccc(C(F)(F)F)cc1O)c1[nH]c(Cl)c(Cl)c1-n1c(C(=O)c2ccc(C(F)(F)F)cc2O)cc(Cl)c1Sc1ncc[nH]1`, for which the IC50 amounted to 1280 nM.
The same measure, in the same setting: the figure for `O=C(c1ccc(C(F)(F)F)cc1O)c1[nH]c(Cl)c(Cl)c1-n1c(C(=O)c2ccc(C(F)(F)F)cc2O)cc(Cl)c1Sc1nc[nH]n1` is 24300 nM.
In turn, `O=C(c1ccc(C(F)(F)F)cc1O)c1[nH]c(Cl)c(Cl)c1-n1c(C(=O)c2ccc(C(F)(F)F)cc2O)cc(Cl)c1Sc1cnccn1` returned an IC50 of 840 nM.
